Bounds are passed on as bounds.

Format in all cases: cell-based
Assay [1] relates to RS4; 11. In words: Cell growth inhibition, CellTiter-Glo Luminescent Cell Viability Assay, RS4;11. The conditions noted are these: Homo sapiens, 96 h, RS4;11 cells, 4 days incubation. How it is done:
(§1) Cell growth inhibitory activity of representative Compounds of the Disclosure was determined in various cell lines using CellTiter-Glo® Luminescent Cell Viability Assay. Cells were seeded in 384-well white opaque cell culture plates at a density of 2,000 cells/well with serially diluted compounds and incubated at 37° C. in an atmosphere of 95% air and 5% CO2 for 4 days. Cell viability was determined using the CellTiter-Glo® Luminescent Cell Viability Assay Kit (Promega, Madison, Wis.) according to the manufacture's instruction. Briefly, a volume of CellTiter-Glo® Reagent equal to the volume of cell culture medium was added to each well, and then the plates were incubated at room temperature for 10-20 minutes. The luminescent signal was measured using a Tecan Infinite M1000 multimode microplate reader (Tecan, Morrisville, N.C.). The half maximal inhibitory concentration (IC50) was calculated using the GraphPad Prism 5 software (GraphPad Software, La Jolla, Calif.).
In general terms: In ATP-based viability assays light output follows the ATP content of the culture.

The test system of assay [2] is MOLM-13. In words: Cell growth inhibition, CellTiter-Glo Luminescent Cell Viability Assay, MOLM-13. The conditions noted are these: Homo sapiens, MOLM-13 cells, 4 days incubation. The procedure, abridged: (§2)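 Cells were seeded at 2,000/well with serially diluted compound and grown 4 days at 37° C, 5% CO2. Viability was read by CellTiter-Glo luminescence after 10-20 min at room temperature, and IC50 was fitted from the dose-response.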

Assay [3] deals with MDA-MB-231. As to the kind of experiment: Cell growth inhibition, CellTiter-Glo Luminescent Cell Viability Assay, MDA-MB-231. The conditions noted are these: Homo sapiens, MDA-MB-231 cells, 4 days incubation. The procedure, abridged:
as §2

Assay [4] concerns MDA-MB-468. In words: Cell growth inhibition, CellTiter-Glo Luminescent Cell Viability Assay, MDA-MB-468. The settings on record: Homo sapiens, 96 h, MDA-MB-468 cells, 4 days incubation. The protocol: as §1

In the case of `Cc1c(C#Cc2cnn(CCCCNc3cccc4c3C(=O)N(C3CCC(=O)NC3=O)C4=O)c2)sc2c1C(c1ccc(Cl)cc1)=NCc1nnc(C)n1-2` (stereo not shown) [Cpd. No. 21, 4-((4-(4-((4-(4-chlorophenyl)-3,9-dimethyl-6H-thieno[3,2-f][1,2,4]triazolo[4,3-a][1,4]diazepin-2-yl)ethynyl)-1H-pyrazol-1-yl)butyl)amino)-2-(2,6-dioxopiperidin-3-yl)isoindoline-1,3-dione], the IC50 in assay [1] came to 0.3 nM; in assay [2] (MOLM-13, 96 h), 1.1 nM; in assay [3] (MDA-MB-231, 96 h), 3.8 nM; in assay [4] it was 6.5 nM.

For the molecule `Cc1c(C#Cc2cnn(CCCCCc3cccc4c3CN(C3CCC(=O)NC3=O)C4=O)c2)sc2c1C(c1ccc(Cl)cc1)=N[C@@H](C)c1nnc(C)n1-2` (stereo partly drawn) [Cpd. No. 24, 3-(4-(5-(4-(((S)-4-(4-chlorophenyl)-3,6,9-trimethyl-6H-thieno[3,2-f][1,2,4]triazolo[4,3-a][1,4]diazepin-2-yl)ethynyl)-1H-pyrazol-1-yl)pentyl)-1-oxoisoindolin-2-yl)piperidine-2,6-dione], the IC50 in assay [1] was less than 0.015 nM; in assay [2] (MOLM-13, 96 h), less than 0.015 nM; in assay [3] (MDA-MB-231, 96 h), less than 0.015 nM; in assay [4] it was less than 0.015 nM.

Consider `Cc1c(C#Cc2cnn(CCCC#Cc3cccc4c3C(=O)N(C3CCC(=O)NC3=O)C4=O)c2)sc2c1C(c1ccc(Cl)cc1)=NCc1nnc(C)n1-2` (stereo not shown) [Cpd. No. 25, 4-(5-(4-((4-(4-chlorophenyl)-3,9-dimethyl-6H-thieno[3,2-f][1,2,4]triazolo[4,3-a][1,4]diazepin-2-yl)ethynyl)-1H-pyrazol-1-yl)pent-1-yn-1-yl)-2-(2,6-dioxopiperidin-3-yl)isoindoline-1,3-dione], for which the IC50 turned out to be 1 nM in assay [1]; 9.1 nM in assay [2] (MOLM-13, 96 h); 24.2 nM in assay [3] (MDA-MB-231, 96 h); 34.9 nM in assay [4].

For the molecule `Cc1c(C#Cc2ccc(CCCCOc3cccc4c3C(=O)N(C3CCC(=O)NC3=O)C4=O)cn2)sc2c1C(c1ccc(Cl)cc1)=N[C@@H](C)c1nnc(C)n1-2` (stereo partly drawn) [Cpd. No. 10, 4-(4-(6-(((S)-4-(4-chlorophenyl)-3,6,9-trimethyl-6H-thieno[3,2-f][1,2,4]triazolo[4,3-a][1,4]diazepin-2-yl)ethynyl)pyridin-3-yl)butoxy)-2-(2,6-dioxopiperidin-3-yl)isoindoline-1,3-dione], the IC50 in assay [1] was 0.26 nM; in assay [2] (96 h), 2.5 nM; in assay [3] (96 h), 1.6 nM; in assay [4], 5.2 nM.

As for `Cc1c(C#Cc2cncn2CCCC#Cc2cccc3c2CN(C2CCC(=O)NC2=O)C3=O)sc2c1C(c1ccc(Cl)cc1)=NCc1nnc(C)n1-2` (stereo not shown) [Cpd. No. 28, 3-(4-(5-(5-((4-(4-chlorophenyl)-3,9-dimethyl-6H-thieno[3,2-f][1,2,4]triazolo[4,3-a][1,4]diazepin-2-yl)ethynyl)-1H-imidazol-1-yl)pent-1-yn-1-yl)-1-oxoisoindolin-2-yl)piperidine-2,6-dione], the IC50 was more than 10 nM in assay [1]; 66.1 nM in assay [2] (MOLM-13, 96 h); more than 100 nM in assay [3] (MDA-MB-231, 96 h); more than 100 nM in assay [4].

`Cc1c(C#Cc2ccc(CCCC#Cc3cccc4c3CN(C3CCC(=O)NC3=O)C4=O)cn2)sc2c1C(c1ccc(Cl)cc1)=N[C@@H](C)c1nnc(C)n1-2` (stereo partly drawn) [Cpd. No. 14, 3-(4-(5-(6-(((S)-4-(4-chlorophenyl)-3,6,9-trimethyl-6H-thieno[3,2-f][1,2,4]triazolo[4,3-a][1,4]diazepin-2-yl)ethynyl)pyridin-3-yl)pent-1-yn-1-yl)-1-oxoisoindolin-2-yl)piperidine-2,6-dione]: the IC50 in assay [2] (MOLM-13, 96 h) was 0.24 nM; in assay [3] (MDA-MB-231, 96 h) it was 0.18 nM; in assay [4], 1.1 nM.

Regarding `Cc1c(C#Cc2cn(CCCCNc3cccc4c3CN(C3CCC(=O)NC3=O)C4=O)nn2)sc2c1C(c1ccc(Cl)cc1)=N[C@@H](C)c1nnc(C)n1-2` (stereo partly drawn) [Cpd. No. 6, 3-(4-((4-(4-(((S)-4-(4-chlorophenyl)-3,6,9-trimethyl-6H-thieno[3,2-f][1,2,4]triazolo[4,3-a][1,4]diazepin-2-yl)ethynyl)-1H-1,2,3-triazol-1-yl)butyl)amino)-1-oxoisoindolin-2-yl)piperidine-2,6-dione], the IC50 is less than 0.0015 nM in assay [1], 0.77 nM in assay [2] (96 h), 2.3 nM in assay [3] (96 h) and 1.7 nM in assay [4].

As to `Cc1c(C#Cc2ccc(CCCCNc3cccc4c3CN(C3CCC(=O)NC3=O)C4=O)cn2)sc2c1C(c1ccc(Cl)cc1)=N[C@@H](C)c1nnc(C)n1-2` (stereo partly drawn) [Cpd. No. 8, 3-(4-((4-(6-(((S)-4-(4-chlorophenyl)-3,6,9-trimethyl-6H-thieno[3,2-f][1,2,4]triazolo[4,3-a][1,4]diazepin-2-yl)ethynyl)pyridin-3-yl)butyl)amino)-1-oxoisoindolin-2-yl)piperidine-2,6-dione], the IC50 worked out at 0.19 nM in assay [1], 0.26 nM in assay [2] (96 h), 0.17 nM in assay [3] (96 h) and 0.65 nM in assay [4].

For `Cc1c(C#Cc2cnn(CCCC#Cc3ccc(F)c4c3CN(C3CCC(=O)NC3=O)C4=O)c2)sc2c1C(c1ccc(Cl)cc1)=NCc1nnc(C)n1-2` (stereo not shown) [compound 142, 3-(4-(5-(4-((4-(4-chlorophenyl)-3,9-dimethyl-6H-thieno[3,2-f][1,2,4]triazolo[4,3-a][1,4]diazepin-2-yl)ethynyl)-1H-pyrazol-1-yl)pent-1-yn-1-yl)-7-fluoro-1-oxoisoindolin-2-yl)piperidine-2,6-dione], the IC50 stood at 1 nM in assay [1]; 6.4 nM in assay [2] (MOLM-13, 96 h); 30.4 nM in assay [3] (MDA-MB-231, 96 h); 32.9 nM in assay [4].

`Cc1c(C#Cc2cn(CCCC#Cc3cccc4c3C(=O)N(C3CCC(=O)NC3=O)C4=O)cn2)sc2c1C(c1ccc(Cl)cc1)=NCc1nnc(C)n1-2` (stereo not shown) [Cpd. No. 27, 4-(5-(4-((4-(4-chlorophenyl)-3,9-dimethyl-6H-thieno[3,2-f][1,2,4]triazolo[4,3-a][1,4]diazepin-2-yl)ethynyl)-1H-imidazol-1-yl)pent-1-yn-1-yl)-2-(2,6-dioxopiperidin-3-yl)isoindoline-1,3-dione]: the IC50 is more than 10 nM in assay [1]; 32 nM in assay [2] (MOLM-13, 96 h); more than 100 nM in assay [3] (MDA-MB-231, 96 h); more than 100 nM in assay [4].

With `Cc1c(C#Cc2cn(CCCCNc3cccc4c3CN(C3CCC(=O)NC3=O)C4=O)nn2)sc2c1C(c1ccc(Cl)cc1)=NCc1nnc(C)n1-2` (stereo not shown) [Cpd. No. 5, 3-(4-((4-(4-((4-(4-chlorophenyl)-3,9-dimethyl-6H-thieno[3,2-f][1,2,4]triazolo[4,3-a][1,4]diazepin-2-yl)ethynyl)-1H-1,2,3-triazol-1-yl)butyl)amino)-1-oxoisoindolin-2-yl)piperidine-2,6-dione], the IC50 was found to be 0.29 nM in assay [1], 3.6 nM in assay [2] (96 h), 22.8 nM in assay [3] (96 h) and 26.1 nM in assay [4].

Take `Cc1c(C#Cc2ccc(OCCCCc3cccc4c3CN(C3CCC(=O)NC3=O)C4=O)cn2)sc2c1C(c1ccc(Cl)cc1)=NCc1nnc(C)n1-2` (stereo not shown) [Cpd. No. 11, 3-(4-(4-((6-((4-(4-chlorophenyl)-3,9-dimethyl-6H-thieno[3,2-f][1,2,4]triazolo[4,3-a][1,4]diazepin-2-yl)ethynyl)pyridin-3-yl)oxy)butyl)-1-oxoisoindolin-2-yl)piperidine-2,6-dione]: the IC50 in assay [2] (96 h) worked out at 11.4 nM; in assay [3] (96 h), 18.1 nM; in assay [4] it was 51 nM.

By IC50 is commonly meant the midpoint of a concentration-inhibition curve.

The record behind these values is US10975093B2, “Fused 1,4-diazepines as BET protein degraders” (THE REGENTS OF THE UNIVERSITY OF MICHIGAN, priority 2016, dated 2021).
